Measured values taken from patent US5686486A, “4-hydroxy-benzopyran-2-ones and 4-hydroxy-cycloalkyl[b]pyran-2-ones useful to treat retroviral infections” (priority 1995, dated 1997).

Experiments:
[1] = target: T1, HIV-1 protease (Human immunodeficiency virus type 1 group M subtype B, UniProt P04585); test: biochemical; conditions: for inhibition at 0.37 µM: read-out: HIV-1 Protease % Inhib, dose 0.370 uM; for inhibition at 1.1 µM: read-out: HIV-1 Protease % Inhib, dose 1.100 uM; for inhibition at 3.3 µM: read-out: HIV-1 Protease % Inhib, dose 3.300 uM; for inhibition at 10 µM: read-out: HIV-1 Protease % Inhib, dose 10.000 uM; for inhibition at 30 µM: read-out: HIV-1 Protease % Inhib, dose 30.000 uM; for inhibition at 0.123 µM: read-out: HIV-1 Protease % Inhib, dose 0.123 uM
How it was run: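 Percent inhibition derived from fluorescent cleavage product separated by filtration after streptavidin-bead capture of intact biotin/FITC substrate. Reaction: enzyme (10 μl, 0.1 μM stock) with substrate (20 μl, 0.2 μM stock) and compound, 1 h at room temperature in dark, pH 5.5 acetate buffer with 1.0 M NaCl and 0.05% NP-40.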

[2] = target: T1, HIV-1 protease; test: biochemical; conditions: read-out: HIV-1 FITC KI
How it was run: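 Enzyme (40 nM stock) and substrate (200 μM stock) incubated with inhibitor, 24–48 two-fold serial concentrations, for 90 min at room temperature, then quenched with avidin beads. Nonlinear least-squares analysis gives Ki; a known-Ki inhibitor validates each run.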

Compound	inhibition at 0.37 µM [1]	inhibition at 1.1 µM [1]	inhibition at 3.3 µM [1]	inhibition at 10 µM [1]	inhibition at 30 µM [1]	Ki [2]	inhibition at 0.123 µM [1]	HIV-1 Protease % Inhib ([1]; dose 1.100 uM)	HIV-1 Protease % Inhib ([1]; dose 3.300 uM)	HIV-1 Protease % Inhib ([1]; dose 10.000 uM)	HIV-1 Protease % Inhib ([1]; dose 30.000 uM)
O=c1oc2c(c(O)c1C(c1ccccc1)C1CC1)CCCCC2Cc1ccccc1 (stereo not shown) [Example 182, 3-(Cyclopropylphenylmethyl)-6,7,8,9-tetrahydro-4-hydroxy-9-(phenylmethyl)-cyclohepta[b]pyran-2(5H)-one]	22.3%	51%	83.7%	99.2%	98.7%	117 nM					
CC(C)CC1CCCCc2c1oc(=O)c(C(c1ccccc1)C1CC1)c2O (stereo not shown) [Example 183, 3-(Cyclopropylphenylmethyl)-6,7,8,9-tetrahydro4-hydroxy-9-(2-methylpropyl)-cyclohepta[b]pyran-2(5H)-one]	56.5%	85.5%	97.3%	95.8%	89.7%	13 nM	20.9%				
CC(C)CCC1CCCCc2c1oc(=O)c(C(c1ccccc1)C1CC1)c2O (stereo not shown) [Example 184, 3-(Cyclopropylphenylmethyl)-6,7,8,9-tetrahydro4-hydroxy-9-(3-methylbutyl)-cyclohepta[b]pyran-2(5H)-one]	18%	60.7%	86%	96.5%	93.1%	46 nM					
CCC1CCCCc2c1oc(=O)c(C(c1ccccc1)C1CC1)c2O (stereo not shown) [Example 185, 3-(Cyclopropylphenylmethyl)-9-ethyl-6,7,8,9-tetrahydro-4-hydroxy-cyclohepta[b]pyran-2(5H)-one]	40.3%	71.5%	92.6%	97.6%	91.8%	22 nM	18.7%				
CCCC1CCCCc2c1oc(=O)c(C(c1ccccc1)C1CC1)c2O (stereo not shown) [Example 188, 3-(Cyclopropylphenylmethyl)-6,7,8,9-tetrahydro-4-hydroxy-9-propyl-cyclohepta[b]pyran-2(5H)-one]	57%	82.2%	88.4%	88.3%	84.5%	26 nM	27.3%				
O=c1oc2c(c(O)c1C(c1ccccc1)C1CC1)CCCCC2CC1CCCO1 (stereo not shown) [Example 189, 3-(Cyclopropylphenylmethyl)-6,7,8,9-tetrahydro4-hydroxy-9-[(tetrahydro-2-furanyl)methyl]-cyclohepta[b]pyran-2(5H)-one]	37.6%	69.8%	89.3%	98.1%	99.3%	36 nM	15.7%				
COCCC1CCCCc2c1oc(=O)c(C(c1ccccc1)C1CC1)c2O (stereo not shown) [Example 194, 3-(Cyclopropylphenylmethyl)-6,7,8,9-tetrahydro4-hydroxy-9-(2-methoxyethyl)-cyclohepta[b]pyran-2(5H)-one]	39.7%					28 nM		81.89%	102.84%	108.17%	107.45%
O=c1oc2c(c(O)c1C(c1ccccc1)C1CC1)CCCCC2C(O)C1CC1 (stereo not shown) [Example 195, 9-(Cyclopropylhydroxymethyl)-3-(cyclopropylphenylmethyl)-6,7,8,9-tetrahydro-4-hydroxy-cyclohepta[b]pyran-2(5H)-one]	23.5%	71.4%	90.8%	108%	117%	22 nM					
CC(C)(C)OC(=O)NCCC(=O)Nc1cccc(C(c2c(O)c3c(oc2=O)CCCCCC3)C2CC2)c1 (stereo not shown) [Example 196, Carbamic acid, [3-[[3-[cyclopropyl(5,6,7,8,9,10-hexahydro-4-hydroxy-2-oxo-2H-cycloocta[b]pyran-3-yl)methyl]phenyl]amino]-3-oxopropyl]-, 1,1-dimethylethyl ester]	81.2%	91.8%	97.9%	105%	95.8%	3 nM	68%				
O=C(CCn1ccc2ccccc21)Nc1cccc(C(c2c(O)c3c(oc2=O)CCCCCC3)C2CC2)c1 (stereo not shown) [Example 197, 1H-Indole-1-propanamide, N-[3-[cyclopropyl(5,6,7,8,9,10-hexahydro-4-hydroxy-2-oxo-2H-cycloocta[b]pyran-3-yl)methyl]phenyl]-]	65.6%	76.6%	88.7%	91.8%	89.6%	14.1 nM	34%				
Cc1ccc(S(=O)(=O)n2cncc2C[C@H](NC(=O)OC(C)(C)C)C(=O)Nc2cccc(C(c3c(O)c4c(oc3=O)CCCCCC4)C3CC3)c2)cc1 (stereo partly drawn) [Example 199, Carbamic acid, [2-[[3-[cyclopropyl(5,6,7,8,9,10-hexahydro-4-hydroxy-2-oxo-2H-cycloocta[b]pyran-3-yl)methyl]phenyl]amino]-1-[[1-(S)-[(4-methylphenyl)sulfonyl]-1H-imidazol-5-yl]methyl]-2-oxoethyl]-, 1,1-dimethylethyl ester]	86.5%	97.6%	106%	114%	107%	10.4 nM	56%				
CC(C)(C)OC(=O)NCC(=O)Nc1cccc(C(c2c(O)c3c(oc2=O)CCCCCC3)C2CC2)c1 (stereo not shown) [Example 200, Carbamic acid, [2-[[3-[cyclopropyl(5,6,7,8,9,10-hexahydro-4-hydroxy-2-oxo-2H-cycloocta[b]pyran-3-yl)methyl]phenyl]amino]-2-oxyethyl]-, 1,1-dimethylethyl ester]	88.5%	90.9%	103%	105%	99.1%	2.9 nM	64.6%				
O=C(CCN1CCCCC1)Nc1cccc(C(c2c(O)c3c(oc2=O)CCCCCC3)C2CC2)c1 (stereo not shown) [Example 205, 1-Piperidinepropanamide, N-[3-[cyclopropyl(5,6,7,8,9,10-hexahydro4-hydroxy-2-oxo-2H-cycloocta[b]pyran-3-yl)methyl]phenyl]-]	56.4%	76.6%	94.2%	109%	104%	26.1 nM	12.6%				
O=C(Cc1ccccc1)Nc1cccc(C(c2c(O)c3c(oc2=O)CCCCCC3)C2CC2)c1 (stereo not shown) [Example 207, N-[3-[Cyclopropyl(5,6,7,8,9,10-hexahydro-4-hydroxy-2-oxo-2H-cycloocta[b]pyran-3-yl)methyl]phenyl]-benzacetamide]	44.1%	74%	93.8%	83%	78.7%	33.4 nM	14%				
CCCC(=O)Nc1cccc(C(c2c(O)c3c(oc2=O)CCCCCC3)C2CC2)c1 (stereo not shown) [Example 209, N-[3-[Cyclopropyl(5,6,7,8,9,10-hexahydro-4-hydroxy-2-oxo-2H-cycloocta[b]pyran-3-yl)methyl]phenyl]-butanamide]	43.2%	80%	96%	104%	100%	24.1 nM					
